The subject of data set [1] is HBV replication in HepAD38 cells. Kind of data set: Anti-HBV activity in HepAD38 cells, extracellular HBV DNA by QPCR. It counts as cell-based, HBV (genotype D, serotype ayw). As to conditions: Hepatitis B virus, HePAD38, 168 h, read-out: Anti-HBV EC50, HepAD38 cells, extracellular HBV DNA by QPCR, 7 days of incubation. The protocol:
The anti-HBV activity of the Capsid Assembly Modulators (CAMs) was evaluated in a cell based assay utilizing the human hepatoma cell line HepAD38 (Ladner, S K., et al., 1998). HepAD38 cells were derived from the parental line, HepG2, that were stably transfected with a construct containing an HBV genome (genotype D, serotype ayw) under the control of a tetracycline repressible CMV promoter. Upon removal of tetracycline, viral pre-genomic RNA (pgRNA) and mRNAs are expressed and infectious viral particles are assembled and secreted into the culture medium providing a reliable, robust system to measure multiple steps of the HBV life cycle. Disruption of capsid formation results in reduced levels of DNA-containing virus particles that are released into the culture supernatant. To quantify the effect of CAMs on HBV replication, we developed a sensitive QPCR-based assay that measures extracellular HBV DNA levels upon treatment of HepAD38 cells with various concentrations of test compounds.
HepAD38 cells were maintained in DMEM/F12 medium containing 10% FBS, 400 μg/mL G418 and 0.3 μg/mL tetracycline (tet+medium) to maintain repression of HBV replication. To evaluate each compound, HepAD38 cells were seeded into 24-well collagen coated culture plates (Corning BioCoat) at a density of 200,000 cells per well in 1 mL of tet+medium and allowed to adhere overnight at 37° C., 5% CO2 in a humidified incubator. The following day, test articles were subjected to half-logo serial dilutions, ranging from 30 μM to 10 nM, in 100% DMSO at 200× the desired final assay concentration. Tetracycline was removed from the cells by aspirating the tet+medium and washing the cells once with growth medium lacking tetracycline (tet-). Various concentrations of each compound were added to the appropriate wells (1:200 dilution) and the plates were returned to the incubator. Following 7 days of incubation, culture supernatants were harvested and HBV DNA levels were evaluated by QPCR and compared to the vehicle treated control wells (i.e. DMSO alone).
To quantify HBV DNA levels, cell culture supernatants were diluted 1:10 in sterile, nuclease-free water (Gibco). The diluted supernatants were subsequently added to a PCR master mix containing 1× Roche Light Cycler Master Mix, 0.5 μM forward primer, 0.5 μM reverse primer (Fwd:
0.2 μM Roche Universal Probe Library Probe 25. The volume was brought to 20 μL with nuclease-free water and amplification of the HBV target sequence was performed using a Roche LightCycler 480 QPCR instrument. PCR extended out to 45 cycles with each cycle consisting of a denaturation step at 95° C. for 10 sec., followed by an annealing step at 60° C. for 10 sec. and a brief extension step at 72° C. for 1 sec.
Extracellular HBV DNA levels, expressed in copies/mL, were determined by comparison to a standard curve (10^2-10^9 copies/mL) using the Roche LightCycler analysis software. These values were subsequently converted to percent inhibition of HBV replication by dividing the HBV DNA levels in the experimental samples with those obtained from the vehicle control (˜1-2×10^5 copies/mL). Potency, expressed as an EC50 (the effective concentration required to inhibit […] of HBV replication), was calculated from the dose-response curve using a 4-parameter non-linear regression analysis (GraphPad Prism). The nucleoside analog inhibitor entecavir was used as a positive control to validate each assay run. The EC50 value of entecavir in the HepAD38 assay was 0.5 nM, as previously reported in the literature.

A short description of data set [2]: In vitro cytotoxicity, MTT cell viability assay in HepG2 cells. It is filed as cell-based. Conditions: human, Cytotoxicity CC50. The protocol: To evaluate antiviral selectivity, the cytotoxic activity of each compound was determined using a standard cell viability assay performed on the parental HepG2 cell line. Cell viability was determined by measuring the conversion of 3-(4,5-dimethylthiazol-2-yl)-2,5-diphenyltetrazolium bromide (MTT) to the insoluble formazan salt crystal that occurs in live cells. Briefly, HepG2 cells were seeded in 96-well plates at a density of 20,000 cells per well in EMEM+10% FBS (complete growth medium) and allowed to adhere overnight in a 37° C., 5% CO2 humidified incubator. The next day, test agents were prepared by performing 8 half-log10 serial dilutions in 100% DMSO at 200× the final desired concentration in the assay. Compounds were tested over a range of concentrations from 30 μM to 1.0 nM in the assay. HepG2 cells were incubated in the presence of various concentrations of CAMs for 7 days in a 37° C., 5% CO2 humidified incubator. At the completion of the 7-day incubation period, MTT reagent was added to each well and the mixture was incubated for an additional 3-4 hours. At the completion of the incubation period, all wells were aspirated to remove the culture medium. The formazan crystals were solubilized from the cell monolayers with 100% DMSO. Plates were briefly mixed on an orbital shaker and absorbance was measured at 492 nm using a Perkin-Elmer EnVision multi-label plate reader. All absorbance values were converted to a percentage of the signal obtained from the vehicle treated controls. Absorbance values at 492 nm are directly proportional to the number of viable cells present in the sample. A CC50 value (cytotoxic concentration that results in loss of 50% cell viability) was calculated from the dose-response curve by 4-parameter, non-linear regression analysis using the GraphPad Prism software. The positive control compound, staurosporine, reduced the viability of HepG2 cells in a dose-dependent manner (CC50=100 nM).

A word on the EC50: it is the concentration at which the effect is half-maximal. By CC50 is commonly meant the concentration that lowers cell viability or growth by half. As for `Cc1cc(NC(=O)c2ccc(F)c(C(F)(F)C(=O)N3C[C@@H](C)N[C@@H](C)C3)c2)ccc1F` [Example 296, 3-(2-((3R,5S)-3,5-dimethylpiperazin-1-yl)-1,1-difluoro-2-oxoethyl)-4-fluoro-N-(4-fluoro-3-methylphenyl)benzamide], the EC50 in data set [1] is below 5 µM. Moreover, in data set [2], the CC50 at 7 days was in the range of 5 to 30 µM.
For `Cc1cc(NC(=O)c2ccc(Cl)c(C(F)(F)C(=O)NC(C)C)c2)ccc1F` [Example 23, 4-chloro-3-(1,1-difluoro-2-(isopropylamino)-2-oxoethyl)-N-(4-fluoro-3-methylphenyl)benzamide], in that order: 5 to 30 µM and 5 to 30 µM.
On to `Cc1cc(NC(=O)c2ccc(F)c(C(F)(F)C(=O)N3[C@@H]4CCC[C@H]3C[C@H](NS(C)(=O)=O)C4)c2)ccc1F` [Example 338, 3-(1,1-difluoro-2-((1R,3s,5S)-3-(methylsulfonamido)-9-azabicyclo[3.3.1]nonan-9-yl)-2-oxoethyl)-4-fluoro-N-(4-fluoro-3-methylphenyl)benzamide], for which the EC50 in data set [1] was below 5 µM. In data set [2], this compound came in with a CC50 at 7 days of 5 to 30 µM.
For `Cc1cc(NC(=O)c2ccc(F)c(C(F)(F)C(=O)N3CC[C@H](N)C3)c2)ccc1F` [Example 234, (S)-3-(2-(3-aminopyrrolidin-1-yl)-1,1-difluoro-2-oxoethyl)-4-fluoro-N-(4-fluoro-3-methylphenyl)benzamide], the concentration giving a half-maximal response (EC50) in data set [1] was in the range of 5 to 30 µM. Also, in data set [2], the CC50 at 7 days was above 30 µM.
On to `Cn1cc(NC(=O)c2ccc(F)c(C(F)(F)C(=O)N3CCC(O)C(F)(F)C3)c2)cn1` (stereo not shown) [Example 179, 3-(2-(3,3-difluoro-4-hydroxypiperidin-1-yl)-1,1-difluoro-2-oxoethyl)-4-fluoro-N-(1-methyl-1H-pyrazol-4-yl)benzamide], for which the EC50 in data set [1] lay in the range of 5 to 30 µM. Also, in data set [2], the CC50 at 7 days is above 30 µM.
On to `CC(C)(C)NC(=O)C(O)c1cc(C(=O)Nc2ccc(F)c(F)c2)ccc1F` (stereo not shown) [Example 119, 3-(2-(tert-butylamino)-1-hydroxy-2-oxoethyl)-N-(3,4-difluorophenyl)-4-fluorobenzamide], for which the EC50 in data set [1] is 5 to 30 µM. The compound also displayed a CC50 at 7 days in data set [2] of 5 to 30 µM.
Regarding `Cc1cc(NC(=O)c2ccc(F)c(C(F)(F)C(=O)N[C@H]3CCOB3O)c2)ccc1F` [Example 150, (R)-3-(1,1-difluoro-2-((2-hydroxy-1,2-oxaborolan-3-yl)amino)-2-oxoethyl)-4-fluoro-N-(4-fluoro-3-methylphenyl)benzamide], in data set [1], the EC50 is below 5 µM. This compound also yielded a CC50 at 7 days in data set [2] above 30 µM.
With `O=C(Nc1ccc(F)c(F)c1)c1ccc(F)c(C(F)(F)C(=O)Nc2ccncc2)c1` [Example 50, 3-(1,1-difluoro-2-oxo-2-(pyridin-4-ylamino)ethyl)-N-(3,4-difluorophenyl)-4-fluorobenzamide], the 50% effective concentration (EC50) in data set [1] fell in the range of 5 to 30 µM. This compound also showed a 50% cytotoxic concentration (CC50) at 7 days in data set [2] of 5 to 30 µM.
Turning to `Cc1cc(NC(=O)c2ccc(F)c(C(F)(F)C(=O)N3C4CCC3CC(O)C4)c2)ccc1F` [Example 78, 3-(1,1-difluoro-2-((1R,3r,5S)-3-hydroxy-8-azabicyclo[3.2.1]octan-8-yl)-2-oxoethyl)-4-fluoro-N-(4-fluoro-3-methylphenyl)benzamide], in data set [1], the EC50 was below 5 µM. Also, the CC50 at 7 days in data set [2] was in the range of 5 to 30 µM.
As to `Cc1cc(NC(=O)c2ccc(F)c(C(F)(F)C(=O)N3CCC(NC(=O)C4CCNC(=O)C4)CC3)c2)ccc1F` (stereo not shown) [Example 233, N-(1-(2,2-difluoro-2-(2-fluoro-5-((4-fluoro-3-methylphenyl)carbamoyl)phenyl)acetyl)piperidin-4-yl)-2-oxopiperidine-4-carboxamide], the EC50 in data set [1] was below 5 µM. The CC50 at 7 days in data set [2] is 5 to 30 µM.
Turning to `Cc1cc(NC(=O)c2ccc(Cl)c(C(F)(F)C(=O)N3CC[C@H](O)[C@H](O)C3)c2)ccc1F` [Example 58, 4-chloro-3-(2-((3R,4S)-3,4-dihydroxypiperidin-1-yl)-1,1-difluoro-2-oxoethyl)-N-(4-fluoro-3-methylphenyl)benzamide], the EC50 in data set [1] was below 5 µM. Also, the CC50 at 7 days in data set [2] was above 30 µM.
As for `Cc1cc(NC(=O)c2ccc(F)c(C(F)(F)C(=O)N3CCC(F)(F)CC3)c2)ccc1F` [Example 278, 3-(2-(4,4-difluoropiperidin-1-yl)-1,1-difluoro-2-oxoethyl)-4-fluoro-N-(4-fluoro-3-methylphenyl)benzamide], the EC50 in data set [1] was in the range of 5 to 30 µM. For the same compound, the 50% cytotoxic concentration (CC50) at 7 days in data set [2] is above 30 µM.
Turning to `Cc1cc(NC(=O)c2ccc(F)c(C(F)(F)C(=O)NC34CCC(O)(CC3)C4)c2)ccc1F` [Example 254, 3-(1,1-difluoro-2-((4-hydroxybicyclo[2.2.1]heptan-1-yl)amino)-2-oxoethyl)-4-fluoro-N-(4-fluoro-3-methylphenyl)benzamide], the EC50 in data set [1] lay within 5 to 30 µM. The same compound gave a CC50 at 7 days in data set [2] above 30 µM.
With `Cc1cc(NC(=O)c2ccc(F)c(C(F)(F)C(=O)N3[C@@H]4COC[C@H]3CN(C(=O)N3CCS(=O)(=O)CC3)C4)c2)ccc1F` [Example 210, 3-(2-((1R,5S)-7-(1,1-dioxidothiomorpholine-4-carbonyl)-3-oxa-7,9-diazabicyclo[3.3.1]nonan-9-yl)-1,1-difluoro-2-oxoethyl)-4-fluoro-N-(4-fluoro-3-methylphenyl)benzamide], the EC50 in data set [1] is below 5 µM. This compound also displayed a CC50 at 7 days in data set [2] above 30 µM.
For the compound `Cc1cc(NC(=O)c2ccc(F)c(C(F)(F)C(=O)N3[C@@H]4CCC[C@H]3C[C@H](N)C4)c2)ccc1F` [Example 337, 3-(2-((1R,3s,5S)-3-amino-9-azabicyclo[3.3.1]nonan-9-yl)-1,1-difluoro-2-oxoethyl)-4-fluoro-N-(4-fluoro-3-methylphenyl)benzamide], the EC50 in data set [1] was below 5 µM. In data set [2], this compound yielded a cytotoxic concentration (CC50) at 7 days of 5 to 30 µM.
As for `O=C(Nc1ccc(F)c(Cl)c1)c1ccc(F)c(C(F)(F)C(=O)N2[C@@H]3CC[C@H]2C[C@H](O)C3)c1` [Example 171, N-(3-chloro-4-fluorophenyl)-3-(1,1-difluoro-2-((1R,3s,5S)-3-hydroxy-8-azabicyclo[3.2.1]octan-8-yl)-2-oxoethyl)-4-fluorobenzamide], the EC50 in data set [1] is below 5 µM. Also, the CC50 at 7 days in data set [2] was in the range of 5 to 30 µM.
For `COCC(C)(C)NC(=O)C(F)(F)c1cc(C(=O)Nc2ccc(F)c(C)c2)cn1C` [Example 132, 5-(1,1-difluoro-2-((1-methoxy-2-methylpropan-2-yl)amino)-2-oxoethyl)-N-(4-fluoro-3-methylphenyl)-1-methyl-1H-pyrrole-3-carboxamide], in data set [1], the EC50 was below 5 µM. Besides, the CC50 at 7 days in data set [2] was above 30 µM.

These data come from patent publication US11247965B2 (VenatoRx Pharmaceuticals, Inc., priority 2017, dated 2022).
